Test results: patent US20230278972A1, “SUBSTITUTED HALOALKYL SULFONANILIDE HERBICIDES” (FMC Corporation, priority 2020, published 2023)

Columns and labels:
Type in all cases: in vivo
[1] = test system: barnyardgrass (Echinochloa crus-galli); assay: Test A preemergence, barnyardgrass; details: Preemergence; for Plant response rating, Barnyardgrass: 0 to 100 scale (0 no effect, 100 complete control); for Barnyardgrass plant response rating: 125 g ai/ha, visual injury on 0 to 100 scale (0 no effect, 100 complete control), approximately 10 days
Procedure, shortened: (§1)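 Whole-plant herbicidal screen in pots of loam blended with sand. Sprays used a surfactant-containing, non-phytotoxic solvent vehicle. Timing was preemergence soil-directed at planting or postemergence at the one- to two-leaf stage (2–10 cm).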

kochia (Bassia scoparia) [2] = assay: Test A preemergence, kochia; details: Preemergence; for Plant response rating, Kochia: 0 to 100 scale (0 no effect, 100 complete control); for Kochia plant response rating: 125 g ai/ha, visual injury on 0 to 100 scale (0 no effect, 100 complete control), approximately 10 days
Procedure, shortened: as §1

[3] = test system: ragweed (common ragweed, Ambrosia artemisiifolia); assay: Test A preemergence, ragweed; details: Preemergence; for Plant response rating, Ragweed: 0 to 100 scale (0 no effect, 100 complete control); for Ragweed plant response rating: 125 g ai/ha, visual injury on 0 to 100 scale (0 no effect, 100 complete control), approximately 10 days
Procedure, shortened: as §1

[4] = test system: Ryegrass, Italian (Italian ryegrass, Lolium multiflorum); assay: Test A preemergence, Ryegrass, Italian; details: Preemergence; for Plant response rating, Ryegrass, Italian: 0 to 100 scale (0 no effect, 100 complete control); for Ryegrass, Italian plant response rating: 125 g ai/ha, visual injury on 0 to 100 scale (0 no effect, 100 complete control), approximately 10 days
Procedure, shortened: as §1

[5] = test system: Foxtail, Giant (giant foxtail, Setaria faberi); assay: Test A preemergence, Foxtail, Giant; details: Preemergence; for Plant response rating, Foxtail, Giant: 0 to 100 scale (0 no effect, 100 complete control); for Foxtail, Giant plant response rating: 125 g ai/ha, visual injury on 0 to 100 scale (0 no effect, 100 complete control), approximately 10 days
Procedure, shortened: as §1

[6] = test system: pigweed (Amaranthus retroflexus); assay: Test A preemergence, pigweed; details: for Plant response rating, Pigweed: 0 to 100 scale (0 no effect, 100 complete control); for Pigweed plant response rating: 125 g ai/ha, visual injury on 0 to 100 scale (0 no effect, 100 complete control), approximately 10 days
Procedure, shortened: (§2)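 Compounds in non-phytotoxic solvent with surfactant. Soil: loam/sand. Preemergence via directed soil spray after seeding; postemergence on seedlings 2–10 cm, one- to two-leaf.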

[7] = test system: barnyardgrass (Echinochloa crus-galli); assay: Test A postemergence, barnyardgrass; details: Postemergence, 0 to 100 scale (0 no effect, 100 complete control)
Procedure, shortened: as §2

kochia (Bassia scoparia) [8] = assay: Test A postemergence, kochia; details: Postemergence
Procedure, shortened: as §1

[9] = test system: ragweed (common ragweed, Ambrosia artemisiifolia); assay: Test A postemergence, ragweed; details: Postemergence
Procedure, shortened: as §1

[10] = test system: Ryegrass, Italian (Italian ryegrass, Lolium multiflorum); assay: Test A postemergence, Ryegrass, Italian; details: Postemergence
Procedure, shortened: as §1

[11] = test system: Foxtail, Giant (giant foxtail, Setaria faberi); assay: Test A postemergence, Foxtail, Giant; details: Postemergence
Procedure, shortened: as §1

[12] = test system: pigweed (Amaranthus retroflexus); assay: Test A postemergence, pigweed; details: Postemergence
Procedure, shortened: as §1

[13] = test system: wheat (Triticum aestivum); assay: Test A postemergence, wheat; details: Postemergence
Procedure, shortened: as §2

corn (Zea mays) = assay: Test A postemergence, corn; details: Postemergence
Procedure, shortened: as §1

[14] = test system: blackgrass (Alopecurus myosuroides); assay: Test A postemergence, blackgrass; details: Postemergence, 0 to 100 scale (0 no effect, 100 complete control)
Procedure, shortened: as §1

[15] = test system: galium (catchweed bedstraw, Galium aparine); assay: Test A postemergence, galium; details: Postemergence
Procedure, shortened: as §2

[16] = 31 g ai/ha, visual injury, approx. 10 days
[17] = 125 g ai/ha, visual injury approx. 10 days
[18] = 31 g ai/ha, visual injury on 0 to 100 scale (0 no effect, 100 complete control), approx. 10 days
[19] = 125 g ai/ha, visual injury approx. 10 days, 0 to 100 scale (0 no effect, 100 complete control)
[20] = 500 g ai/ha, visual injury, approx. 10 days
[21] = 500 g ai/ha, visual injury, 0 to 100 scale (0 no effect, 100 complete control), approx. 10 days
[22] = 500 g ai/ha, visual injury vs untreated controls after approx. 10 days
[23] = 125 g ai/ha, 0 to 100 scale (0 no effect, 100 complete control)
[24] = 500 g ai/ha, visual injury vs untreated controls after approx. 10 days, 0 to 100 scale (0 no effect, 100 complete control)

SMILES: COC(=O)N(c1cc(C(=O)N2CCCC(OC)C2)c(C)cc1C)S(=O)(=O)C(F)(F)F (stereo not drawn) [Compound 115]
- Plant response rating, Barnyardgrass [1, 16]: 50
- Barnyardgrass plant response rating [1]: 100
- Plant response rating, Kochia (kochia (Bassia scoparia) [2]; [16]): 0
- Kochia plant response rating (kochia (Bassia scoparia) [2]): 40
- Plant response rating, Ragweed [3, 16]: 0
- Ragweed plant response rating [3]: 20
- Plant response rating, Ryegrass, Italian [4, 16]: 70
- Ryegrass, Italian plant response rating [4]: 90
- Plant response rating, Foxtail, Giant [5, 16]: 100
- Foxtail, Giant plant response rating [5]: 100
- Plant response rating, Pigweed [6, 16]: 100
- Pigweed plant response rating [6]: 90
- Plant response rating, Barnyardgrass ([7]; 31 g ai/ha): 10
- Plant response rating, Barnyardgrass [7, 17]: 50
- Plant response rating, Kochia (kochia (Bassia scoparia) [8]; [18]): 20
- Plant response rating, Kochia (kochia (Bassia scoparia) [8]; [19]): 30
- Plant response rating, Ragweed [9, 18]: 30
- Plant response rating, Ragweed [9, 19]: 50
- Plant response rating, Ryegrass, Italian [10, 18]: 0
- Plant response rating, Ryegrass, Italian [10, 19]: 40
- Plant response rating, Foxtail, Giant [11, 18]: 0
- Plant response rating, Foxtail, Giant [11, 19]: 30
- Plant response rating, Pigweed [12, 18]: 30
- Plant response rating, Pigweed [12, 19]: 60
- Plant response rating, Wheat [13, 18]: 40
- Plant response rating, Wheat [13, 19]: 60
- Plant response rating, Corn (corn (Zea mays); [18]): 0
- Plant response rating, Corn (corn (Zea mays); [19]): 0
- Plant response rating, Blackgrass ([14]; 31 g ai/ha): 0
- Plant response rating, Blackgrass [14, 17]: 0
- Plant response rating, Galium [15, 18]: 80
- Plant response rating, Galium [15, 19]: 90

SMILES: Cc1cc(Cl)c(NS(=O)(=O)C(F)(F)F)cc1-c1cn(C)c(=O)n(C)c1=O [Compound 29]
- Barnyardgrass plant response rating [1]: 40
- Plant response rating, Barnyardgrass ([1]; 500 g ai/ha): 100
- Kochia plant response rating (kochia (Bassia scoparia) [2]): 40
- Plant response rating, Kochia (kochia (Bassia scoparia) [2]; 500 g ai/ha): 90
- Ragweed plant response rating [3]: 60
- Plant response rating, Ragweed ([3]; 500 g ai/ha): 90
- Ryegrass, Italian plant response rating [4]: 90
- Plant response rating, Ryegrass, Italian ([4]; 500 g ai/ha): 100
- Foxtail, Giant plant response rating [5]: 100
- Plant response rating, Foxtail, Giant ([5]; 500 g ai/ha): 100
- Pigweed plant response rating [6]: 70
- Plant response rating, Pigweed ([6]; 500 g ai/ha): 90
- Plant response rating, Barnyardgrass [7, 17]: 50
- Plant response rating, Barnyardgrass [7, 20]: 90
- Plant response rating, Kochia (kochia (Bassia scoparia) [8]; [19]): 30
- Plant response rating, Kochia (kochia (Bassia scoparia) [8]; [21]): 80
- Plant response rating, Ragweed [9, 19]: 80
- Plant response rating, Ragweed [9, 21]: 90
- Plant response rating, Ryegrass, Italian [10, 19]: 70
- Plant response rating, Ryegrass, Italian [10, 21]: 90
- Plant response rating, Foxtail, Giant [11, 19]: 90
- Plant response rating, Foxtail, Giant [11, 21]: 90
- Plant response rating, Pigweed [12, 19]: 40
- Plant response rating, Pigweed [12, 21]: 50
- Plant response rating, Wheat [13, 19]: 70
- Plant response rating, Wheat [13, 21]: 70
- Plant response rating, Corn (corn (Zea mays); [19]): 0
- Plant response rating, Corn (corn (Zea mays); [21]): 10
- Plant response rating, Blackgrass [14, 17]: 80
- Plant response rating, Blackgrass [14, 20]: 90
- Plant response rating, Galium [15, 19]: 90
- Plant response rating, Galium [15, 21]: 90

SMILES: Cc1cc(C)c(N(S(=O)(=O)C(F)(F)F)S(=O)(=O)C(F)(F)F)cc1C1=NOC2(CCCCCC2)C1 [Compound 158]
- Barnyardgrass plant response rating [1]: 30
- Plant response rating, Barnyardgrass ([1]; 500 g ai/ha): 100
- Kochia plant response rating (kochia (Bassia scoparia) [2]): 70
- Plant response rating, Kochia (kochia (Bassia scoparia) [2]; 500 g ai/ha): 80
- Ragweed plant response rating [3]: 30
- Plant response rating, Ragweed ([3]; 500 g ai/ha): 40
- Ryegrass, Italian plant response rating [4]: 30
- Plant response rating, Ryegrass, Italian ([4]; 500 g ai/ha): 100
- Foxtail, Giant plant response rating [5]: 90
- Plant response rating, Foxtail, Giant ([5]; 500 g ai/ha): 100
- Pigweed plant response rating [6]: 50
- Plant response rating, Pigweed ([6]; 500 g ai/ha): 100
- Plant response rating, Barnyardgrass ([7]; 125 g ai/ha): 0
- Barnyardgrass plant response rating [7, 22]: 20
- Plant response rating, Kochia (kochia (Bassia scoparia) [8]; [23]): 20
- Kochia plant response rating (kochia (Bassia scoparia) [8]; [24]): 30
- Plant response rating, Ragweed [9, 23]: 10
- Ragweed plant response rating [9, 24]: 20
- Plant response rating, Ryegrass, Italian [10, 23]: 0
- Ryegrass, Italian plant response rating [10, 24]: 0
- Plant response rating, Foxtail, Giant [11, 23]: 0
- Foxtail, Giant plant response rating [11, 24]: 20
- Plant response rating, Pigweed [12, 23]: 30
- Pigweed plant response rating [12, 24]: 80
- Plant response rating, Wheat [13, 23]: 0
- Wheat plant response rating [13, 24]: 0
- Plant response rating, Corn (corn (Zea mays); [23]): 0
- Corn plant response rating (corn (Zea mays); [24]): 20
- Plant response rating, Blackgrass ([14]; 125 g ai/ha): 20
- Blackgrass plant response rating [14, 22]: 0
- Plant response rating, Galium [15, 23]: 70
- Galium plant response rating [15, 24]: 90
